Measurements: patent US8093386B2, “Thioaryl substituted inhibitors of zinc proteases and their use” (Bracco Imaging S.p.A, priority 2006, dated 2012)
One block for each molecule: values may come before it.

What was measured:
Format in all cases: biochemical
MMP-14 = target: T1, MMP-14 (Homo sapiens, UniProt P50281); test: In vitro fluorometric inhibition assay of MMPs: MMP-14
T1 construct: purchased Calbiochem
Protocol: (§1) Analysis of the In Vitro Inhibition Activity of Zinc Metalloproteinases: In Vitro Inhibition of MMMPs
(§2) The human recombinant Progelatinase A (pro-MMP-2), B (pro-MMP-9), MMP-14cd and MMP-16cd, were provided by Prof. Gillian Murphy (Oncology Department, Cambridge University, UK); pro-MMP-1, pro-MMP-3, pro-MMP-7, pro-MMP-8, pro-MMP-13 and pro-MMP-14 were bought from Calbiochem. The proenzymes were activated immediately before the use with p-aminophenylmercuric acetate (APMA 2 mM for 1 h at 37° C. for MMP-1, MMP-2 and MMP-8, 1 mM for 1 h at 37° C. for MMP-9 and MMP-7, 1 mM for 30 min at 37° C. for MMP-13). Pro-MMP-14 and pro-MMP-3 were activated with trypsin 5 μg/ml for 15 min at 37° C. followed the soybean trypsin inhibitor (SBTI) 23 μg/ml for pro-MMP-14 and 62 μg/ml for pro-MMP-3. The catalytic domains of MMP-14 and MMP-16 were utilized without activation.
(§3) For the assay measurements, the stock solutions of the inhibitor (DMSO, 100 mM) were further diluted up to 7 different concentrations (0.01 nM-300 μM) for each MMP, in the buffer for the fluorometric assay (FAB: Tris 50 mM, pH=7.5, NaCl 150 mM, CaCl2 10 mM, Brij 35 0.05% and DMSO 1%). The solutions of activated enzyme (final concentrations 2.9 nM for MMP-2, 2.7 nM for MMP-9, 2.4 nM for MMP-7, 1 nM for MMP-14 and MMP-3, 1.5 nM for MMP-8 and MMP-16cd, 0.84 nM for MMP-14cd, 0.66 nM for MMP-13 and 0.20 nM for MMP-1) and of inhibitor were incubated in the assay buffer for 4 h at 25° C. After the addition of solution of fluorogenic substrate 200 μM Mca-Arg-Pro-Lys-Pro-Val-Glu-Nva-Trp-Arg-Lys(Dnp)-NH2 (Sigma) for MMP-3 and Mca-Lys-Pro-Leu-Gly-Leu-Dpa-Ala-Arg-NH2 (Bachem) for all the other enzymes in DMSO (final concentration 2 μM), the hydrolysis were monitored every 15 sec for 20 min, recording the increase in fluorescence (λex=325 nm, λem=400 nm) with a Molecular Device SpectraMax Gemini XS plates reader. The assays were made in triplicate in a total volume of 200 μl per well on 96 well-plates for microtitolation (Corning, black, NBS). The control wells were without inhibitor.
(§4) The inhibition activity of MMP was expressed in relative fluorescence unit (RFU). The percentage of inhibition was calculated using control reactions without inhibitor.
(§5) IC50 was determined using the formula: Vi/Vo=1/(1+[I]/IC50), wherein Vi is the initial rate of the substrate scission in presence of the inhibitor at the concentration [I] and Vo is the initial rate in the absence of inhibitor. The results were analyzed with the SoftMax Pro software and the GraFit software.

MMP-9 = target: T2, MMP-9 (Homo sapiens, UniProt P14780); test: In vitro fluorometric inhibition assay of MMPs: MMP-9
T2 construct: gift of Prof; Gillian Murphy (Oncology Department, Cambridge University, UK)
T2 sequence (P14780 107-707 limits assumed): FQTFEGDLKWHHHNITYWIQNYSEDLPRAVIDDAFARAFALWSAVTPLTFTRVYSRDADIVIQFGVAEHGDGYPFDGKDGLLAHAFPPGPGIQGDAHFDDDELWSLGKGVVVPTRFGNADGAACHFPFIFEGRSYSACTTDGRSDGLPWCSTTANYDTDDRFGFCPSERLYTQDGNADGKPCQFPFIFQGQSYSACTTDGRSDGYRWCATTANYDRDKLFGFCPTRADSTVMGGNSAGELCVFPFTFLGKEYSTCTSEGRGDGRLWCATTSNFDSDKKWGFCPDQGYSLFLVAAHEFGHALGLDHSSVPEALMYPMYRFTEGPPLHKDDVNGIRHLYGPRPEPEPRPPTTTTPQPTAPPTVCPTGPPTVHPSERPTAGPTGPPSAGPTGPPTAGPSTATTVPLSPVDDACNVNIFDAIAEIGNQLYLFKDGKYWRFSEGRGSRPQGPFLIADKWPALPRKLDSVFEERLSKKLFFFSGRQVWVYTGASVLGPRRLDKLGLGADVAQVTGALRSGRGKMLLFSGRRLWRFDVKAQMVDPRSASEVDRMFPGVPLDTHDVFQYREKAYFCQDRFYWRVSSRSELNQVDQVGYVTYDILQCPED
Protocol: as §1
as §2, with “The proenzymes were activated immediately before the use with p-aminophenylmercuric acetate (APMA 2 mM for 1 h at 37° C. for MMP-1, MMP-2 and MMP-8, 1 mM for 1 h at 37° C. for MMP-9 and MMP-7, 1 mM for 30 min at 37° C. for MMP-13).” left out
as §3, with “The solutions of activated enzyme (final concentrations 2.9 nM for MMP-2, 2.7 nM for MMP-9, 2.4 nM for MMP-7, 1 nM for MMP-14 and MMP-3, 1.5 nM for MMP-8 and MMP-16cd, 0.84 nM for MMP-14cd, 0.66 nM for MMP-13 and 0.20 nM for MMP-1) and of inhibitor were incubated in the assay buffer for 4 h at 25° C.” left out
as §4, §5

MMP-2 = target: T3, MMP-2 (Homo sapiens, UniProt P08253); test: In vitro fluorometric inhibition assay of MMPs: MMP-2
T3 construct: gift of Prof; Gillian Murphy (Oncology Department, Cambridge University, UK)
T3 sequence (P08253 110-660): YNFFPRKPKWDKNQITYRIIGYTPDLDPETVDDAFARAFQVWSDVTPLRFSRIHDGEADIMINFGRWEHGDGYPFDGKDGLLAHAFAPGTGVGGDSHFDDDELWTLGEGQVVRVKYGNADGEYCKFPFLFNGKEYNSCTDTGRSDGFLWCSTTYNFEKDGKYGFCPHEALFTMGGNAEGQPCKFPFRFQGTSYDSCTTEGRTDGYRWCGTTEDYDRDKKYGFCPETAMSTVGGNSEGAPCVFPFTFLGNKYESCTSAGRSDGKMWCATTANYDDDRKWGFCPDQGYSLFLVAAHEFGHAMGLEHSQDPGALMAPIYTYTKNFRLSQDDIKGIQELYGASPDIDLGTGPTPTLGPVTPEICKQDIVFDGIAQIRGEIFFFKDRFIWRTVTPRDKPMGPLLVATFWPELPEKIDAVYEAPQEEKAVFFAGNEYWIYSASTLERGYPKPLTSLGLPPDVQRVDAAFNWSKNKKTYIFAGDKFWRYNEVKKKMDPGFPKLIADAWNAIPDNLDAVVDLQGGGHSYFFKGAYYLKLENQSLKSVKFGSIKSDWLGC
Protocol: as §1, §2, §3, §4, §5

- IC50 (MMP-14; Table II, cells without (*)): 127 ± 6.9 µM
- IC50 (MMP-9; Table II, cells without (*)): 17.7 ± 1.4 µM
- IC50 (MMP-2; Table II, cells without (*)): 5.34 ± 0.65 µM
Compound: COc1ccc(-c2ccc(Sc3ccccc3CC(=O)NS(C)(=O)=O)cc2)cc1 [Compound 25, 2-(2-(4′-methoxybiphenyl-4-ylthio)phenyl)-N-(methylsulphonyl)acetamide]

- IC50 (MMP-9; Table III, cells without (*)): 0.105 ± 0.013 µM
- IC50 (MMP-2; Table III, cells without (*)): 0.568 ± 0.031 µM
Compound: COc1ccc(Oc2ccc(Sc3ccccc3CC(=O)NO)cc2)cc1 [Compound 13]

- IC50 (MMP-14; Table II, cells marked (*)): 116 ± 9.79 µM
- IC50 (MMP-9; Table II, cells marked (*)): 83.5 ± 5.87 µM
- IC50 (MMP-2; Table II, cells marked (*)): 62.5 ± 6.27 µM
Compound: COc1ccc(-c2ccc(Sc3ccccc3C(=O)O)cc2)cc1 [Compound 47, 2-(4′-methoxybiphenyl-4-ylthio)benzoic acid]

- IC50 (MMP-14; Table III, cells without (*)): 297 ± 64 µM
- IC50 (MMP-9; Table III, cells without (*)): 48.7 ± 8.6 µM
- IC50 (MMP-2; Table III, cells without (*)): 20 ± 8 µM
Compound: COc1ccc(Oc2ccc(Sc3ccccc3CC(=O)O)cc2)cc1 [Compound 11, 2-(2-(4-(4-methoxyphenoxy)phenylthio)phenyl)acetic acid]

- IC50 (MMP-14; Table II, cells marked (*)): 3.65 ± 0.2 µM
- IC50 (MMP-2; Table II, cells marked (*)): 0.114 ± 0.005 µM
Compound: COc1ccc(-c2ccc(Sc3ccccc3CC(=O)O)cc2)cc1 [Compound 22, 2-(2-(4′-methoxybiphenyl-4-ylthio)phenyl)acetic acid]

- IC50 (MMP-14; Table III, cells marked (*)): 260 ± 30.1 µM
- IC50 (MMP-9; Table III, cells marked (*)): 47.3 ± 2 µM
- IC50 (MMP-2; Table III, cells marked (*)): 78.6 ± 6.3 µM
Compound: COc1ccc(Oc2ccc(S(=O)(=O)c3ccccc3CC(=O)NS(C)(=O)=O)cc2)cc1 [Compound 43, 2-(2-(4-(4-methoxyphenoxy)phenylsulphonyl)phenyl)-N-(methylsulphonyl)acetamide]

- IC50 (MMP-14; Table III, cells marked (*)): 272 ± 18.7 µM
- IC50 (MMP-9; Table III, cells marked (*)): 106 ± 23.6 µM
- IC50 (MMP-2; Table III, cells marked (*)): 183 ± 18.4 µM
Compound: COc1ccc(Oc2ccc(Sc3ccccc3CC(=O)NS(C)(=O)=O)cc2)cc1 [Compound 39, 2-(2-(4-(4-methoxyphenoxy)phenylthio)phenyl)-N-(methylsulphonyl)acetamide]

- IC50 (MMP-14; Table II, cells without (*)): 64.7 ± 2.9 µM
- IC50 (MMP-2; Table II, cells without (*)): 22.5 ± 2.1 µM
Compound: COc1ccc(-c2ccc(S(=O)(=O)c3ccccc3C(=O)NS(C)(=O)=O)cc2)cc1 [Compound 106, 2-(4′-methoxybiphenyl-4-yl-sulphonyl)-N-(methylsulphonyl)benzamide]

- IC50 (MMP-14; Table II, cells without (*)): 156 ± 9.5 µM
- IC50 (MMP-9; Table II, cells without (*)): 73.7 ± 7.8 µM
- IC50 (MMP-2; Table II, cells without (*)): 65.8 ± 5.8 µM
Compound: COc1ccc(-c2ccc(Sc3ccccc3C(C)C(=O)NS(C)(=O)=O)cc2)cc1 (centres unmarked) [Compound 57, 2-(2-(4′-methoxybiphenyl-4-ylthio)phenyl)-N-(methylsulphonyl)propanamide]

- IC50 (MMP-14; Table III, cells marked (*)): 528 ± 58.1 µM
- IC50 (MMP-9; Table III, cells marked (*)): 101 ± 5.9 µM
- IC50 (MMP-2; Table III, cells marked (*)): 20.5 ± 2.1 µM
Compound: COc1ccc(Oc2ccc(S(=O)(=O)c3ccccc3C(=O)NS(C)(=O)=O)cc2)cc1 [Compound 38, 2-(4-(4-methoxyphenoxy)phenylsulphonyl)-N-(methylsulphonyl)benzamide]

- IC50 (MMP-14; Table II, cells marked (*)): 8.33 ± 0.511 µM
- IC50 (MMP-9; Table II, cells marked (*)): 2.47 ± 0.212 µM
- IC50 (MMP-2; Table II, cells marked (*)): 0.384 ± 0.031 µM
Compound: COc1ccc(-c2ccc(S(=O)(=O)c3ccccc3CP(=O)(O)O)cc2)cc1 [Compound 86, 2-(4′-methoxybiphenyl-4-ylsulphonyl)benzylphosphonic acid]

- IC50 (MMP-14; Table III, pH 6.7): 1.95 ± 0.212 µM
- IC50 (MMP-9; Table III, pH 6.7): 0.168 ± 0.027 µM
- IC50 (MMP-2; Table III, pH 6.7): 0.571 ± 0.045 µM
Compound: COc1ccc(Oc2ccc(S(=O)(=O)c3ccccc3CP(=O)(O)O)cc2)cc1 [Compound 72, 2-(4-(4-methoxyphenoxy)phenylsulphonyl)benzyl phosphonic acid]

- IC50 (MMP-14; Table II, cells marked (*)): 9.95 ± 0.916 µM
- IC50 (MMP-2; Table II, cells marked (*)): 0.159 ± 0.0068 µM
Compound: COc1ccc(-c2ccc(Sc3ccccc3C(C)C(=O)O)cc2)cc1 (centres unmarked) [Compound 54]

- IC50 (MMP-14; Table III, cells marked (*)): 79 ± 6 µM
- IC50 (MMP-9; Table III, cells marked (*)): 17.8 ± 1.3 µM
- IC50 (MMP-2; Table III, cells marked (*)): 12.2 ± 1.6 µM
Compound: COc1ccc(Oc2ccc(Sc3ccccc3C(=O)NS(C)(=O)=O)cc2)cc1 [Compound 8, 2-(4-(4-methoxyphenoxy)phenylthio)-N-(methylsulphonyl)benzamide]

- IC50 (MMP-14; Table II, cells marked (*)): 6.5 ± 0.597 µM
- IC50 (MMP-2; Table II, cells marked (*)): 0.0272 ± 0.0016 µM
Compound: COc1ccc(-c2ccc(Sc3ccccc3C(C)C(=O)NO)cc2)cc1 (centres unmarked) [Compound 56a, N-hydroxy-2-(2-(4′-methoxybiphenyl-4-ylthio)phenyl)propanamide]

- IC50 (MMP-9; Table I, cells marked (*)): 1.11 ± 0.136 µM
- IC50 (MMP-2; Table I, cells marked (*)): 0.0379 ± 0.0022 µM
Compound: O=C(Cc1ccccc1Sc1ccc(-c2ccsc2)cc1)NO [Compound 30, N-hydroxy-2-(2-(4-(thiophene-3-yl)phenylthio)phenyl)acetamide]

- IC50 (MMP-14; Table II, cells without (*)): 73.1 ± 7.9 µM
- IC50 (MMP-2; Table II, cells without (*)): 41.8 ± 5.1 µM
Compound: COc1ccc(-c2ccc(Sc3ccccc3C(=O)NS(C)(=O)=O)cc2)cc1 [Compound 48, 2-(4′-methoxybiphenyl-4-ylthio)-N-(methylsulphonyl)benzamide]
